Test results from US10035760B2, “Inhibitors of human immunodeficiency virus replication” (priority 2013, dated 2018).
Where two headings read alike, the source gives them in different places.

Tested on: recombinant NL4-3 virus (Renilla luciferase) in MT-2 cells
Experiment: HIV cell culture assay (antiviral activity, luciferase readout in infected MT-2 cells)
Type: cell-based
Conditions: Renilla
Description: HIV cell culture assay—MT-2 cells, 293T cells and the proviral DNA clone of NL4-3 virus were obtained from the NIH AIDS Research and Reference Reagent Program. MT-2 cells were propagated in RPMI 1640 media supplemented with 10% heat inactivated fetal bovine serum (FBS), 100 ug/ml penicillin G and up to 100 units/ml streptomycin. The 293T cells were propagated in DMEM media supplemented with 10% heat inactivated FBS, 100 ug/ml penicillin G and 100 ug/ml streptomycin. A recombinant NL4-3 proviral clone, in which a section of the nef gene was replaced with the Renilla luciferase gene, was used to make the reference virus used in these studies. The recombinant virus was prepared through transfection of the recombinant NL4-3 proviral clone into 293T cells using Transit-293 Transfection Reagent from Mirus Bio LLC (Madison, Wis.). Supernatent was harvested after 2-3 days after transfection, and the amount of virus present was titered in MT-2 cells using luciferase enzyme activity as a marker. Luciferase activity was quantitated using the EnduRen Live Cell Substrate from Promega (Madison, Wis.). Antiviral activities of compounds toward the recombinant virus were quantified by measuring luciferase activity in MT-2 cells infected for 4-5 days with the recombinant virus in the presence of serial dilutions of the compound.
The 50% effective concentration (EC50) was calculated by using the exponential form of the median effect equation where (Fa)=1/[1+(ED50/drug conc.)^m](Johnson V A, Byington R T. Infectivity Assay. In Techniques in HIV Research. ed. Aldovini A, Walker B D. 71-76. New York: Stockton Press. 1990).

[1] = NL43, read-out: Activity, antiviral activity class, recombinant NL4-3 Renilla luciferase virus in MT-2 cells
[2] = NL43, recombinant NL4-3 Renilla luciferase virus in MT-2 cells

SMILES	EC50 [1] [nM]	EC50 [2] [nM]
CN(C(=O)[C@H](Cc1ccccc1)NC(=O)NS(=O)(=O)c1ccccc1)c1ccc2c(c1)OCO2 [Example 1, (S)—N-(benzo[d][1,3]dioxol-5-yl)-N-methyl-3-phenyl-2-(3-(phenylsulfonyl)ureido)propanamide]	100 to 1000	260
Cc1ccccc1S(=O)(=O)NC(=O)N[C@@H](Cc1ccccc1)C(=O)N(C)c1ccc2c(c1)OCO2 [Example 2, (S)—N-(benzo[d][1,3]dioxol-5-yl)-N-methyl-3-phenyl-2-(3-(o-tolylsulfonyl)ureido)propanamide]	< 100	70
CN(C(=O)[C@H](Cc1ccccc1)NC(=O)NS(=O)(=O)c1cccc(Cl)c1)c1ccc2c(c1)OCO2 [Example 3, (S)—N-(benzo[d][1,3]dioxol-5-yl)-2-(3-((3-chlorophenyl)sulfonyl)ureido)-N-methyl-3-phenylpropanamide]	100 to 1000	–
CN(C(=O)[C@H](Cc1ccccc1)NC(=O)NS(=O)(=O)C1(C)CC1)c1ccc2c(c1)OCO2 [Example 4, (S)—N-(benzo[d][1,3]dioxol-5-yl)-N-methyl-2-(3-((1-methylcyclopropyl)sulfonyl)ureido)-3-phenylpropanamide]	1000 to 10000	1110
Cc1ccc(S(=O)(=O)NC(=O)N[C@@H](Cc2ccccc2)C(=O)N(C)c2ccc3c(c2)OCO3)cc1 [Example 5, (S)—N-(benzo[d][1,3]dioxol-5-yl)-N-methyl-3-phenyl-2-(3-tosylureido)propanamide]	100 to 1000	–
CN(C(=O)[C@H](Cc1ccccc1)NC(=O)NS(=O)(=O)c1ccc(Cl)cc1)c1ccc2c(c1)OCO2 [Example 6, (S)—N-(benzo[d][1,3]dioxol-5-yl)-2-(3-((4-chlorophenyl)sulfonyl)ureido)-N-methyl-3-phenylpropanamide]	100 to 1000	–
CN(C(=O)[C@H](Cc1ccccc1)NC(=O)NS(=O)(=O)c1ccccc1Cl)c1ccc2c(c1)OCO2 [Example 7, (S)—N-(benzo[d][1,3]dioxol-5-yl)-2-(3-((2-chlorophenyl)sulfonyl)ureido)-N-methyl-3-phenylpropanamide]	< 100	–
COc1ccc(S(=O)(=O)NC(=O)N[C@@H](Cc2ccccc2)C(=O)N(C)c2ccc3c(c2)OCO3)cc1 [Example 8, (S)—N-(benzo[d][1,3]dioxol-5-yl)-2-(3-((4-methoxyphenyl)sulfonyl)ureido)-N-methyl-3-phenylpropanamide]	100 to 1000	180
CN(C(=O)[C@H](Cc1ccccc1)NC(=O)NS(=O)(=O)c1ccccc1F)c1ccc2c(c1)OCO2 [Example 9, (S)—N-(benzo[d][1,3]dioxol-5-yl)-2-(3-((2-fluorophenyl)sulfonyl)ureido)-N-methyl-3-phenylpropanamide]	< 100	–
CN(C(=O)[C@H](Cc1ccccc1)NC(=O)NS(=O)(=O)Cc1ccccc1)c1ccc2c(c1)OCO2 [Example 10, (S)—N-(benzo[d][1,3]dioxol-5-yl)-2-(3-(benzylsulfonyl)ureido)-N-methyl-3-phenylpropanamide]	100 to 1000	–
CN(C(=O)[C@H](Cc1ccccc1)NC(=O)NS(=O)(=O)c1cc(Cl)cc(Cl)c1)c1ccc2c(c1)OCO2 [Example 11, (S)—N-(benzo[d][1,3]dioxol-5-yl)-2-(3-((3,5-dichlorophenyl)sulfonyl)ureido)-N-methyl-3-phenylpropanamide]	100 to 1000	–
CN(C(=O)[C@H](Cc1ccccc1)NC(=O)NS(=O)(=O)c1cc(Br)ccc1Br)c1ccc2c(c1)OCO2 [Example 12, (S)—N-(benzo[d][1,3]dioxol-5-yl)-2-(3-((2,5-dibromophenyl)sulfonyl)ureido)-N-methyl-3-phenylpropanamide]	< 100	–
Cc1ccc(C)c(S(=O)(=O)NC(=O)N[C@@H](Cc2ccccc2)C(=O)N(C)c2ccc3c(c2)OCO3)c1 [Example 13, (S)—N-(benzo[d][1,3]dioxol-5-yl)-2-(3-((2,5-dimethylphenyl)sulfonyl)ureido)-N-methyl-3-phenylpropanamide]	< 100	50
